# In PubChem BioAssay (NCI):
#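 Following 48 hours of exposure in 96-well plates, responses at five concentrations were used to interpolate endpoints linearly. Abbreviation: GI50, concentration required for 50% inhibition of growth. The concentration for full growth arrest is given as TGI.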
# Experiments:
# Test in all cases: NCI-60 cell line screen, 48 h
# A498 renal = test system: A498 renal
# COLO 205 colon = test system: COLO 205 colon
# HCC-2998 colon = test system: HCC-2998 colon
# MDA-MB-435 = test system: MDA-MB-435
# OVCAR-4 ovarian = test system: OVCAR-4 ovarian
# OVCAR-5 ovarian = test system: OVCAR-5 ovarian
# SK-MEL-5 melanoma = test system: SK-MEL-5 melanoma
# T-47D breast = test system: T-47D breast
# UACC-62 melanoma = test system: UACC-62 melanoma
# UO-31 renal = test system: UO-31 renal
Compound,GI50 (A498 renal),TGI (A498 renal),GI50 (COLO 205 colon),TGI (COLO 205 colon),GI50 (HCC-2998 colon),TGI (HCC-2998 colon),GI50 (MDA-MB-435),GI50 (OVCAR-4 ovarian),TGI (OVCAR-4 ovarian),GI50 (OVCAR-5 ovarian),GI50 (SK-MEL-5 melanoma),TGI (SK-MEL-5 melanoma),GI50 (T-47D breast),TGI (T-47D breast),GI50 (UACC-62 melanoma),TGI (UACC-62 melanoma),GI50 (UO-31 renal),TGI (UO-31 renal),TGI (MDA-MB-435),TGI (OVCAR-5 ovarian)
CCCNNC(=O)c1ccc(CNC(=O)/C=C/c2ccccc2)cc1,0.123 µM,0.36 µM,0.0909 µM,0.292 µM,0.186 µM,0.653 µM,0.2 µM,0.375 µM,> 100 µM,0.104 µM,0.102 µM,0.262 µM,0.13 µM,0.715 µM,0.0825 µM,0.249 µM,0.0515 µM,0.771 µM,–,–
O=C(CN/C=C\C(=O)c1cc(Cl)ccc1Cl)c1ccccc1,23.2 µM,90.5 µM,34.9 µM,> 100 µM,19.3 µM,47.2 µM,19.2 µM,49.8 µM,> 100 µM,30.6 µM,18.1 µM,33.7 µM,33.4 µM,> 100 µM,20.7 µM,52 µM,34.4 µM,> 100 µM,45 µM,> 100 µM
CC(=O)/C=C/c1ccc(N(C)Cc2ccc(C(C)(C)C)cc2)cc1,124 µM,251 µM,95.1 µM,275 µM,149 µM,340 µM,114 µM,125 µM,330 µM,195 µM,55.1 µM,184 µM,47.8 µM,405 µM,113 µM,255 µM,83.2 µM,212 µM,322 µM,490 µM
O=C1/C(=c2\c3ccccc3n3c(=O)c4ccccc4nc23)Nc2ccccc21,–,> 100 µM,–,> 100 µM,–,> 100 µM,–,–,> 100 µM,–,–,> 100 µM,–,> 100 µM,–,> 100 µM,–,> 100 µM,36.8 µM,> 100 µM
NS(=O)(=O)c1ccc(NCc2cnc3ccccc3c2)cc1,–,> 100 µM,–,> 100 µM,–,> 100 µM,–,–,> 100 µM,–,–,> 100 µM,–,> 100 µM,–,> 100 µM,–,> 100 µM,> 100 µM,> 100 µM
CCNCCNc1cc(C2CCCC2)c(C#N)c2nc3ccccc3n12,2.67 µM,8.32 µM,2 µM,4.71 µM,3.48 µM,15.3 µM,2.62 µM,3.22 µM,13 µM,5.13 µM,1.75 µM,3.31 µM,2.58 µM,7.14 µM,1.92 µM,3.76 µM,1.67 µM,3.18 µM,7.62 µM,19.9 µM
Cc1ccc(S(=O)(=O)N2C/C(=C\c3cc(F)cc(F)c3)C(=O)/C(=C/c3cc(F)cc(F)c3)C2)cc1,1.57 µM,3.41 µM,0.653 µM,2.33 µM,0.632 µM,1.97 µM,0.236 µM,0.367 µM,3.57 µM,0.713 µM,0.272 µM,0.908 µM,1.77 µM,6.59 µM,0.231 µM,0.605 µM,0.481 µM,1.08 µM,0.653 µM,2.28 µM
